# From patent US20130171178A1, “Immunogenic Peptides of Xage-1” (THE GOVERNMENT OF THE UNITED STATES AS REPRESENTED BY THE …, priority 2003, published 2013)
# Like-named read-outs stand apart in the source and are kept apart here. Where a SMILES comes first, the peptide text is derived from it.
# Columns and labels:
# HLA-A2 = target: T1, HLA-A2 (Homo sapiens, UniProt P04439, D140Y/D185E/D98H/E176V/E277Q/G131W/G231S/I119V/I121R/I166T/I218V/L300P/L318F/N151K/N90K/P208A/P217A/Q86G/Q94H/R138H/R169H/T345S); assay: T2 binding assay (HLA-A2 expression on T2 cells by flow cytometry)
# T1 construct: host or cells: T2 cells (human T-B lymphoblast hybrid, TAP1/TAP2 deficient)
# [1] = tested on: HLA-A2 positive human Ewing's sarcoma cell line which expresses XAGE-1 mRNA; assay: CTL lysis of human XAGE-1-expressing cancer cells by CTLs of immunized HLA-A2 transgenic mice; assay type: in vivo
# Excerpt: (§1) FIG. 3. CTLs induced with peptide of the invention can lyse human cancer cell expressing XAGE-1. Spleen cells derived from HLA-A2 transgenic mice immunized with a peptide of the invention (SEQ ID NO:6), as the effector cells, were stimulated in vitro for two weeks and used for a CTL assay. C1R.AAD cells pulsed or unpulsed with a peptide of SEQ ID NO:6 and a human osteosarcoma cell line expressing XAGE-1 (SB, described in Liu et al, Can Research 60:4752-4755 (2000)) were used as target cells. “E:T Ratio” stands for “Effector:Target ratio,” as indicated on the axis.
# (§2) Xage-1 14 peptide (50 nmol) was emulsified in incomplete Freund's adjuvant with 50 nmol of a helper epitope derived from HCV core128-140, 5 μg of IL-12, and 5 μg of GM-CSF. Transgenic A2 Kb mice were immunized s.c. with the emulsified peptide and given a booster shot at 2 weeks. […] A week after the second stimulation, cells were harvested and measured for cytotoxic activity. The cytotoxic activity was measured by 4-hr ^51Cr-release assay. The percentage of specific ^51Cr release was determined as follows: (experimental release−spontaneous release)/(maximum release−spontaneous release)×100. Maximum release was determined from supernatants of cells that were lysed by addition of 5% Triton X-100. Spontaneous release was determined from target cells incubated without added effector cells. […]
# [2] = tested on: C1R.AAD cells pulsed or unpulsed with peptide; assay: CTL 51Cr-release assay, spleen cells of peptide-immunized HLA-A2 transgenic mice against peptide-pulsed or unpulsed targets; assay type: in vivo; conditions: spleen cells from immunized HLA-A2-transgenic mice
# Excerpt: as §1, §2
# [3] = T2 cells, overnight incubation with peptide and β2-microglobulin, read-out: binding affinity to HLA-A2 (F.I.50)
# [4] = T2 binding assay, enhanced xage-1 14 peptides, read-out: Binding Affinity to HLA-A2 (FI50)
SMILES,EC50 (HLA-A2; [3]) [nM],EC50 (HLA-A2; [4]) [nM],binding to HLA-A2 (in words) (HLA-A2; T2 binding assay),other results
"CC[C@H](C)[C@H](NC(=O)[C@H](Cc1c[nH]c2ccccc12)NC(=O)[C@@H](NC(=O)[C@H](CCC(=O)O)NC(=O)[C@@H]1CCCN1C(=O)[C@@H](NC(=O)[C@H](CCCNC(=N)N)NC(=O)[C@@H](NC(=O)[C@H](C)N)[C@@H](C)O)C(C)C)C(C)C)C(=O)N[C@@H](CC(C)C)C(=O)O [xage-1 33, ATRVPEVWIL, reference compound] (H-ATRVPEVWIL-OH)",> 50000,,,
"CSCC[C@H](NC(=O)[C@@H](NC(=O)[C@@H]1CCCN1C(=O)[C@H](CO)NC(=O)[C@H](CCCNC(=N)N)NC(=O)[C@@H]1CCCN1C(=O)[C@H](CO)NC(=O)[C@H](C)NC(=O)[C@@H](NC(=O)[C@@H](N)Cc1c[nH]cn1)[C@@H](C)O)C(C)C)C(=O)O [xage-1 57, HTASPRSPVM, reference compound] (H-HTASPRSPVM-OH)",> 50000,,,
"CC(C)[C@H](NC(=O)[C@@H]1CCCN1C(=O)[C@H](CO)NC(=O)[C@@H]1CCCN1C(=O)[C@H](C)NC(=O)[C@H](CO)NC(=O)[C@@H]1CCCN1C(=O)[C@H](Cc1ccccc1)NC(=O)[C@@H](NC(=O)CN)C(C)C)C(=O)O [xage-1 14, GVFPSAPSPV] (H-GVFPSAPSPV-OH; N-terminus and C-terminus assumed)",700 to 800,,surprisingly stronger binding to HLA-A2 compared to other candidate peptides,"killing of human XAGE-1-expressing cancer cells by CTLs (FIG. 3) ([1]; CTLs from HLA-A2 transgenic mice immunized with peptide, varying E:T ratio): killed human RAGE-1-expressing cancer cells in a dose dependent manner; lysis of human Ewing's sarcoma cells by CTLs ([1]; CTLs from mice immunized twice with peptide, restimulated in vitro): lysed the human Ewing's sarcoma cells; specific lytic activity against peptide-pulsed targets ([2]; stimulated twice in vitro, targets pulsed with xage-1 14): lysed target cells pulsed with peptide; lytic activity against target cells not pulsed with peptide ([2]; unpulsed targets): did not lyse target cells not pulsed with peptide"
"CC(C)[C@H](NC(=O)[C@@H]1CCCN1C(=O)[C@H](CO)NC(=O)[C@@H]1CCCN1C(=O)[C@H](C)NC(=O)[C@H](CO)NC(=O)[C@@H]1CCCN1C(=O)[C@H](Cc1ccccc1)NC(=O)[C@@H](NC(=O)[C@@H](N)Cc1ccc(O)cc1)C(C)C)C(=O)O [1Y xage-1 14, YVFPSAPSPV] (H-YVFPSAPSPV-OH; N-terminus and C-terminus assumed)",,2360,,
"CC(C)C[C@H](NC(=O)[C@@H](N)Cc1ccc(O)cc1)C(=O)N[C@@H](Cc1ccccc1)C(=O)N1CCC[C@H]1C(=O)N[C@@H](CO)C(=O)N[C@@H](C)C(=O)N1CCC[C@H]1C(=O)N[C@@H](CO)C(=O)N1CCC[C@H]1C(=O)N[C@H](C(=O)O)C(C)C [1Y2L xage-1 14, YLFPSAPSPV] (H-YLFPSAPSPV-OH; N-terminus and C-terminus assumed)",,3040,,

# Now from value to compound, other results behind:
EC50 (HLA-A2; [3]) [nM],EC50 (HLA-A2; [4]) [nM],SMILES,binding to HLA-A2 (in words) (HLA-A2; T2 binding assay),other results
,1860,"CC(C)C[C@H](NC(=O)CN)C(=O)N[C@@H](Cc1ccccc1)C(=O)N1CCC[C@H]1C(=O)N[C@@H](CO)C(=O)N[C@@H](C)C(=O)N1CCC[C@H]1C(=O)N[C@@H](CO)C(=O)N1CCC[C@H]1C(=O)N[C@H](C(=O)O)C(C)C [2L xage-1 14, GLFPSAPSPV] (H-GLFPSAPSPV-OH; N-terminus and C-terminus assumed)",,
,280,"CSCC[C@H](NC(=O)[C@@H](NC(=O)CN)C(C)C)C(=O)N1CCC[C@H]1C(=O)N[C@@H](CO)C(=O)N[C@@H](C)C(=O)N1CCC[C@H]1C(=O)N[C@@H](CO)C(=O)N1CCC[C@H]1C(=O)N[C@H](C(=O)O)C(C)C [3M xage-1 14, GVMPSAPSPV] (H-GVMPSAPSPV-OH; N-terminus and C-terminus assumed)",particularly high binding affinity to HLA-A2,
,620,"CSCC[C@H](NC(=O)[C@H](CC(C)C)NC(=O)CN)C(=O)N1CCC[C@H]1C(=O)N[C@@H](CO)C(=O)N[C@@H](C)C(=O)N1CCC[C@H]1C(=O)N[C@@H](CO)C(=O)N1CCC[C@H]1C(=O)N[C@H](C(=O)O)C(C)C [2L3M xage-1 14, GLMPSAPSPV] (H-GLMPSAPSPV-OH; N-terminus and C-terminus assumed)",particularly high binding affinity to HLA-A2,
